Test results taken from patent publication US8835455B2, “Crystalline forms of trans-7-oxo-6-(sulphooxy)-1,6-diazabicyclo[3,2,1]octane-2-carboxamide sodium salt” (Forest Laboratories Holdings Limited, priority 2009, dated 2014).
Like-named read-outs stand apart in the source and are kept apart here.

Legend:
[1] = Decarbonyl degradation product of NXL-104 (reverse phase gradient HPLC, UV 195 nm); assay type: physicochemical; conditions: vial at 25° C./60% RH
Description: The decarbonyl degradation product of trans-7-oxo-6-(sulphooxy)-1,6-diazabicyclo[3,2,1]octane-2-carboxamide sodium salt was determined by a reverse phase gradient HPLC method with UV detection at 195 nm.
(§1) The following parameters were used for analysis:
(§2) Column: Inertsil ODS-3, 250 mm×4.6 mm, 5 μm
Mobile Phase A: Deionized Water
Mobile Phase B: 50 mM KH2PO4 solution: Acetonitrile, [50:50 (v:v)]
(§3) Column Temperature: 25° C.
(§4) Detector/Setting: UV/195 nm
Run Time (Approximate): 35 minutes
Injector Washing Solution: Acetonitrile:Water, [50:50 (v:v)] (Recommended)
Approximate relative retention time (RRT) for decarbonyl was 0.17.

[2] = Assay for NXL-104 and related substances (reverse phase gradient HPLC, UV 195 nm) on stored samples; assay type: physicochemical; conditions: vial at 25° C./60% RH
Description: Assay for NXL-104 and Related Substances
NXL-104 and related substances in compositions comprising trans-7-oxo-6-(sulphooxy)-1,6-diazabicyclo[3,2,1]octane-2-carboxamide sodium salt were determined by a reverse phase gradient HPLC method with UV detection at 195 nm.
as §1, §2
Mobile Phase A: 100 mM KH2PO4 Solution
Mobile Phase B: Acetonitrile: Water, [50:50 (v:v)]
as §3
Autosampler Temperature: 5° C.
as §4
Run Time: about 25 minutes
Injector Washing Solution: Acetonitrile:Water, [10:90 (v:v)]
Approximate relative retention times (RRT) values for trans-7-oxo-6-(sulphooxy)-1,6-diazabicyclo[3,2,1]octane-2-carboxamide sodium salt and disulfate were 1.00 and 0.37.
The stability of amorphous trans-7-oxo-6-(sulphooxy)-1,6-diazabicyclo[3,2,1]octane-2-carboxamide sodium salt stored in a vial stored at 25° C. with a relative humidity of 60% (25° C./60% RH) was evaluated using the NXL-104 assay described above.
NXL-104 and related substances were measured according to the assay described in Example 6.

pH of stability samples = assay type: physicochemical; conditions: vial at 25° C./60% RH
[3] = Phase I study Part A, single IV dose, plasma pharmacokinetics; assay type: in vivo, healthy male and female subjects; conditions: for half-life / AUC(0-inf) / Cmax / T1/2: Geo mean; for Tmax: Median; for pharmacokinetic interaction between ceftaroline fosamil and NXL-104: Phase I Part A, single 600 mg IV doses alone or concomitant
Description: (§5) A single center, two-part randomized Phase I Study was conducted to evaluate the safety, tolerability, and pharmacokinetics of single and multiple intravenous doses of ceftaroline fosamil and NXL-104 in healthy male and female subjects, aged 18 through 45 years.
(§6) Part A was an open-label, 3-way crossover, single-dose study to evaluate the safety, tolerability, and pharmacokinetics of ceftaroline and NXL-104 following co-administration of a single intravenous (IV) dose of ceftaroline fosamil and NXL-104 in 12 healthy subjects.
Treatment A: single dose of 600 mg ceftaroline fosamil via IV infusion over one hour.
Treatment B: single dose of 600 mg NXL-104 via IV infusion over one hour.
Treatment C: single dose of 600 mg ceftaroline fosamil and 600 mg NXL-104 via concomitant IV infusion over one hour.
Blood samples were collected at the following times to determine ceftaroline, ceftaroline fosamil, ceftaroline M-1 (metabolite of ceftaroline fosamil), and NXL-104 free-acid plasma concentrations.
Days 1 (Period I), 6 (Period II), and 11 (Period III): in each study period immediately before (within 15 minutes) the start of infusion and after the start of study drug infusion at 20, 40, 60 (immediately before the end of study-drug infusion), 65, and 75 minutes and at 1.5, 2, 3, 4, 6, 8, 12, 18, 24, 36, and 48 hours
The principal parameters describing the pharmacokinetics of ceftaroline, ceftaroline fosamil, ceftaroline M-1 (metabolite of ceftaroline fosamil), and NXL-104 were derived from plasma concentrations using noncompartmental analysis with the software program WinNonlin. Plasma concentrations below the limit of quantification were treated as zero for all PK calculations. The actual sampling times were used in the calculations of PK parameters.
The following PK parameters were determined for ceftaroline, ceftaroline ceftaroline M-1, and NXL-104 free acid: AUC0-t and area under the plasma concentration versus time curve from time zero to infinity (AUC0-∞), Cmax, time of maximum plasma concentration (Tmax), CL, volume of distribution (VA and steady-state volume of distribution (Vss). Minimum plasma concentration (Cmin), accumulation ratio (Rac), and area under the plasma concentration versus time curve during the dosing interval, τ, (AUC0-τ) will be determined following multiple-dose administration.
Because all doses of ceftaroline are expressed in terms of anhydrous, acetate-free ceftaroline fosamil (ceftaroline prodrug, molecular weight=684.68), the following corrections were made to the dose when calculating PK parameters that include doses for ceftaroline (molecular weight=604.70) and ceftaroline M-1 (molecular weight=622.72): Ceftaroline dose=0.883×ceftaroline fosamil dose Ceftaroline M-1 dose=0.909×ceftaroline fosamil dose
The Cmax of ceftaroline, ceftaroline fosamil, ceftaroline M-1, and NXL-104 free acid was determined observationally as the peak concentration for each subject. Tmax was determined as the time corresponding to Cmax.
Area under the plasma concentration versus time curve up to the time corresponding to the last measurable concentration (AUC0-t) was calculated by numeric integration using the linear trapezoidal rule as follows:
Estimates of T1/2 were calculated using the following equation: T1/2=0.693/λz
The AUC0-∞ was calculated according to the following equation: AUC0-∞=AUC0-t+Clast/λz
CL was calculated with the following equation: CL=Doseiv/AUC0-∞
Vz based on the terminal phase was determined as: Vz=Doseiv/λz×AUC0-∞
In part A, PK parameters were compared by analysis of variance using SAS version 9.1.3 on a UNIX operating system. A general linear model with sequence, subject within sequence, treatment, and period as factors was used as the basis for the analysis. […]

[4] = Phase I study, safety and tolerability; assay type: in vivo, healthy male and female subjects; conditions: healthy subjects, IV
Description: as §5, §6
The following procedures were performed and recorded at screening: • Collect blood samples for serology testing, hematology evaluation (including CBC, prothrombin time and international normalized ratio [PT/INR], partial thromboplastin time [PTT], free hemoglobin, haptoglobin, and reticulocyte count), and comprehensive metabolic panel • Collect urine for UA (including urine microscopy) and for drugs-of-abuse screen • Perform β-HCG serum pregnancy test (female subjects only) • Calculate CrCl and BMI • Assess vital signs • Perform 12-lead ECG • Perform complete physical examination • Assess prior medications • Record medical and surgical history • Record any spontaneously reported AE or SAE between signing of informed consent and Day —1 for subjects who comply with all screening processes […]

[5] = Behaviour of crystalline forms in humid atmosphere; assay type: physicochemical
Description: The invention also relates to processes for making a dihydrate form of the sodium salt of (1R,2S,5R)-7-oxo-6-sulphooxy-1,6-diazabicyclo[3.2.1]octane-2-carboxamide called Form III. In exemplary embodiments, crystals of Form II are suspended in water, and the suspension is then left to evaporate slowly in a humid atmosphere. Crystals can also been obtained by trituration of crystals of Form II in water or in an alkanol-water mixture, or by conversion, in a humid atmosphere, of the anhydrous Form I and Form IV to the monohydrated Form II and then to the dihydrated Form III.

[6] = both sexes, human, plasma, iv, 600 mg, Treatment 600 mg Ceftaroline fosamil
[7] = both sexes, human, plasma, iv, 600 mg, Treatment 600 mg Ceftaroline fosamil, read-out: AUC0-inf
[8] = both sexes, human, plasma, iv, 600 mg, Treatment 600 mg Ceftaroline fosamil, read-out: Cmax
[9] = both sexes, human, plasma, iv, 600 mg, Treatment 600 mg NXL-104 + Ceftaroline fosamil 600 mg
[10] = both sexes, human, plasma, iv, 600 mg, Treatment 600 mg NXL-104 + Ceftaroline fosamil 600 mg, read-out: AUC0-inf
[11] = both sexes, human, plasma, iv, 600 mg, Treatment 600 mg NXL-104 + Ceftaroline fosamil 600 mg, read-out: Cmax
[12] = both sexes, human, plasma, iv, Treatment 600 mg Ceftaroline fosamil, read-out: Tmax
[13] = Treatment 600 mg Ceftaroline fosamil
[14] = Treatment 600 mg NXL-104 + Ceftaroline fosamil 600 mg

Work on `NC(=O)[C@@H]1CC[C@@H]2CN1C(=O)N2OS(=O)(=O)[O-].[Na+]` [amorphous NXL-104, trans-7-oxo-6-(sulphooxy)-1,6-diazabicyclo[3,2,1]octane-2-carboxamide sodium salt] yielded a Decarbonyl ([1]; 1 month) of 0.46%, a Decarbonyl ([1]; 3 months) of 0.48% and a Decarbonyl ([1]; 6 months) of 0.33%. For the same molecule, the Decarbonyl ([1]; Initial) was 0.63%, the Disulfate ([2]; 1 month) was 0.19% and the NXL-104 % ([2]; 1 month) was 111.3%. For the same molecule, the “Total Impurities, NXL-104 related” value ([2]; 1 month) was 0.89%, the Disulfate ([2]; 3 months) was 0.17% and the NXL-104 % ([2]; 3 months) was 108.0%. The “Total Impurities, NXL-104 related” value ([2]; 3 months) was 0.92%, the Disulfate ([2]; 6 months) was 0.17% and the NXL-104 % ([2]; 6 months) was 106.1%. For the same molecule, the “Total Impurities, NXL-104 related” value ([2]; 6 months) was 0.87%, the Disulfate ([2]; Initial) was 0.19% and the NXL-104 % ([2]; Initial) was 106.4%. For the same molecule, the “Total Impurities, NXL-104 related” value ([2]; Initial) was 0.90%, the pH (pH of stability samples; 1 month) was 7.3 and the pH (pH of stability samples; 3 months) was 7.2. For the same molecule, the pH (pH of stability samples; 6 months) was 7.3 and the pH (pH of stability samples; Initial) was 7.0.
With `CCO/N=C(\C(=O)N[C@@H]1C(=O)N2C(C(=O)[O-])=C(Sc3nc(-c4cc[n+](C)cc4)cs3)CS[C@H]12)c1nsc(N)n1` [Ceftaroline] the half-life [3, 6] was 2.51 h, the AUC(0-inf) [3, 7] was 61000 ng·h/mL and the Cmax [3, 8] was 24800 ng/mL. It also gave a half-life [3, 9] of 2.47 h, an AUC(0-inf) [3, 10] of 60000 ng·h/mL and a Cmax [3, 11] of 26700 ng/mL. For the same molecule, the Tmax [3, 12] was 1 h.
`CCO/N=C(\C(=O)N[C@H](C(=O)[O-])[C@@H]1NC(C(=O)[O-])=C(Sc2nc(-c3cc[n+](C)cc3)cs2)CS1)c1nsc(N)n1.[H+]` [Ceftaroline M-1] gave an AUC(0-inf) [3, 13] of 16420 ng·h/mL, a Cmax [3, 13] of 3290 ng/mL and a T1/2 [3, 13] of 3.75 h. It also gave a Tmax [3, 13] of 1.08 h, an AUC(0-inf) [3, 14] of 15780 ng·h/mL and a Cmax [3, 14] of 3210 ng/mL. For the same molecule, the T1/2 [3, 14] was 3.78 h and the Tmax [3, 14] was 1.04 h.
For `CCO/N=C(\C(=O)N[C@@H]1C(=O)N2C(C(=O)[O-])=C(Sc3nc(-c4cc[n+](C)cc4)cs3)CS[C@H]12)c1nsc(NP(=O)(O)O)n1` [ceftaroline fosamil, (6R,7R)-7-{(2Z)-2-(ethoxyimino)-2-[5-(phosphonoamino)-1,2,4-thiadiazol-3-yl]acetamido}-3-{[4-(1-methylpyridin-1-ium-4-yl)-1,3-thiazol-2-yl]sulfanyl}-8-oxo-5-thia-1-azabicyclo[4.2.0]oct-2-ene-2-carboxylate], the safety [4] was “no safety concerns”, the “pharmacokinetic interaction between ceftaroline fosamil and NXL-104” value [3] was “no pharmacokinetic interactions” and the half-life [3, 6] was 0.084 h. For the same molecule, the AUC(0-inf) [3, 7] was 2170 ng·h/mL, the Cmax [3, 8] was 2110 ng/mL and the half-life [3, 9] was 0.055 h. It also gave an AUC(0-inf) [3, 10] of 2160 ng·h/mL, a Cmax [3, 11] of 2370 ng/mL and a Tmax [3, 12] of 0.67 h.
With `NC(=O)[C@@H]1CC[C@@H]2CN1C(=O)N2OS(=O)(=O)[O-].[Na+]` [NXL-104, trans-7-oxo-6-(sulphooxy)-1,6-diazabicyclo[3,2,1]octane-2-carboxamide sodium salt] the safety [4] was “no safety concerns”, the “pharmacokinetic interaction between ceftaroline fosamil and NXL-104” value [3] was “no pharmacokinetic interactions” and the half-life [3, 9] was 1.63 h. For the same molecule, the AUC(0-inf) [3, 10] was 51200 ng·h/mL, the Cmax [3, 11] was 29100 ng/mL and the half-life ([3]; both sexes, human, plasma, iv, 600 mg, Treatment 600 mg NXL-104) was 1.64 h. It also gave an AUC(0-inf) ([3]; both sexes, human, plasma, iv, 600 mg, Treatment 600 mg NXL-104, read-out: AUC0-inf) of 51900 ng·h/mL, a Cmax ([3]; both sexes, human, plasma, iv, 600 mg, Treatment 600 mg NXL-104, read-out: Cmax) of 29500 ng/mL and a Tmax ([3]; both sexes, human, plasma, iv, Treatment 600 mg NXL-104, read-out: Tmax) of 1 h.
With `NC(=O)[C@@H]1CC[C@@H]2CN1C(=O)N2OS(=O)(=O)[O-].[Na+]` [Form III, trans-7-oxo-6-(sulphooxy)-1,6-diazabicyclo[3,2,1]octane-2-carboxamide sodium salt] the “stability at higher humidities” value [5] was “particularly stable”.
